≈ marks a conversion by molar mass, not a printed value. Calls of active or inactive are those of the source. The rule behind the calls is not given here. Starred links: 1 amine or outer side, 2 acyl side, 3 side chain; linkers in the order of their positions; H or OH if unused. Residues, ends and D or L forms follow the SMILES beside them. *: point of attachment. X1 = CC(=O)O[C@H]1C(=O)[C@@]2(C)[C@H]([C@H](OC(=O)c3ccccc3)[C@]3(O)C[C@H](OC(=O)[C@H](OC(=O)CCCCCN4C(=O)CC(*)C4=O)[C@@H](NC(=O)c4ccccc4)c4ccccc4)C(C)=C1C3(C)C)[C@]1(OC(C)=O)CO[C@@H]1C[C@@H]2O; Pteroyl = Nc1nc2ncc(CNc3ccc(C(=O)*)cc3)nc2c(=O)[nH]1; γGlu = O=C(O)[C@H](CCC(=O)[*:2])N[*:1]

The subject of series [1] is MCF7/PTX. Nature of the series: Induction of membrane disruption in human MCF7/PTX cells incubated for 12 hrs by LDH release assay. The class given is functional, cell-based. For orientation: LDH in the medium is a marker of cell lysis.
The subject of series [2] is MCF7/PTX. Nature of the series: Induction of apoptosis in human MCF7/PTX cells assessed as late apoptotic cells at 3 uM incubated for 12 hrs by Annexin V-FITC/propidium iodide staining based flow cytometric analysis (reference value: 0.9%). The class given is functional. For orientation: A flow cytometer gives signals particle by particle.
Series [3] deals with MCF7. The series can be described thus: Cytotoxicity against human MCF7 cells incubated for 48 hrs by MTT assay. As to conditions: MCF7, 48 h. The class given is functional, cell-based. For orientation: Tetrazolium dyes change colour on reduction, which living cells bring about.
In series [4] the test system is MCF7/PTX. The series can be described thus: Cytotoxicity against human MCF7/PTX cells incubated for 48 hrs by MTT assay. The format is functional, cell-based.
The next series has as its system K562. Nature of the series: Cytotoxicity against human K562 cells incubated for 48 hrs by MTT assay. The class given is functional, cell-based. The conditions noted are these: K562, 48 h.
The test system of a further series is A2780. The series can be described thus: Cytotoxicity against human A2780 cells incubated for 48 hrs by MTT assay. The format is functional, cell-based. As to conditions: A2780, 48 h.
The test system of a further series is SK-OV-3. Nature of the series: Cytotoxicity against human SKOV3 cells incubated for 48 hrs by MTT assay. The class given is functional, cell-based. As to conditions: SK-OV-3, 48 h.
In a further series the test system is HUVEC. Nature of the series: Cytotoxicity against HUVEC incubated for 48 hrs by MTT assay. The format is cell-based. As to conditions: Homo sapiens.
In series [5] the test system is MCF7/PTX. Nature of the series: Induction of apoptosis in human MCF7/PTX cells assessed as necrotic cells at 3 uM incubated for 12 hrs by Annexin V-FITC/propidium iodide staining based flow cytometric analysis (reference value: 2.1%). The format is functional.
The test system of series [6] is MCF7/PTX. The series can be described thus: Induction of apoptosis in human MCF7/PTX cells assessed as live cells at 3 uM incubated for 12 hrs by Annexin V-FITC/propidium iodide staining based flow cytometric analysis (reference value: 95.9%). The format is functional.
The subject of series [7] is MCF7/PTX. Nature of the series: Induction of apoptosis in human MCF7/PTX cells assessed as early apoptotic cells at 3 uM incubated for 12 hrs by Annexin V-FITC/propidium iodide staining based flow cytometric analysis (reference value: 1.1%). The class given is functional.
The subject of a further series is Erythrocyte. The series can be described thus: Hemolytic activity in Wistar rat erythrocytes incubated for 1 hr. The class given is ADME, cell-based.
Series [8] can be described thus: Drug uptake in human MCF7/PTX cells at 1 to 6 uM incubated for 2 hrs using FITC-labelled compound by flow cytometric analysis. The format is ADME, cell-based.
The test system of series [9] is MCF7/PTX. The series can be described thus: Cytotoxicity against human MCF7/PTX cells at 1 to 6 uM incubated for 48 hrs by MTT assay. The format is functional, cell-based.
Series [10] relates to MCF7. Nature of the series: Cytotoxicity against human MCF7 cells at 1 to 6 uM incubated for 48 hrs by MTT assay. The class given is functional, cell-based.
For series [11], the system named is MCF7/PTX. The series can be described thus: Induction of membrane disruption in human MCF7/PTX cells at 3 uM incubated for 12 hrs by AO/EB double staining based fluorescence microscopic method. The class given is functional, cell-based.
Series [12] relates to MCF7/PTX. Nature of the series: Induction of mitochondrial membrane potential loss in human MCF7/PTX cells at 3 uM incubated for 12 hrs by JC1 staining-based confocal microscopic method. The format is functional, cell-based.
For series [13], the system named is MCF7/PTX. The series can be described thus: Induction of apoptosis in human MCF7/PTX cells assessed as increase in cleaved caspase 3 level in cytoplasm at 3 uM incubated for 2 hrs by Western blot analysis. The format is functional, cell-based.
For series [14], the system named is MCF7/PTX. The series can be described thus: Induction of apoptosis in human MCF7/PTX cells assessed increase in cytochrome-c expression in cytoplasm at 3 uM incubated for 2 hrs by Western blot analysis. The class given is functional, cell-based.
Series [15] concerns MCF7/PTX. The series can be described thus: Induction of membrane disruption in human MCF7/PTX cells incubated for 12 hrs by AO/EB double-staining based fluorescence microscopic method. The format is functional, cell-based.
Series [16] is described as follows: Aqueous solubility of the compound. The format is physicochemical. The conditions noted are these: buffer.
The target of another series is Tubulin (Sus scrofa) (UniProt P02554+P02550). The series can be described thus: Induction of porcine brain tubulin polymerization at 3 uM by fluorescence analysis.
Series [17] in a line: Antitumor activity against […] cells xenografted in ICR mouse assessed as reduction in tumor volume at 12 umol/kg administered once every 2 days via peritumoral route for 2 weeks measured for 22 days by caliper analysis relative to control. The format is functional.
Series [18] can be described thus: Half life in Wistar rat plasma at 500 ug/ml measured over 24 hrs at 37 degC by UPLC/MS analysis. The class given is ADME, cell-free.
Series [19] has as its system MCF7/PTX. The series can be described thus: Induction of apoptosis in human MCF7/PTX cells assessed as live cells at 3 uM incubated for 12 hrs by Annexin V-FITC/propidium iodide staining based flow cytometric analysis in presence of paclitaxel (reference value: 95.9%). The format is functional.
Series [20] relates to MCF7/PTX. Nature of the series: Induction of apoptosis in human MCF7/PTX cells assessed as early apoptotic cells at 3 uM incubated for 12 hrs by Annexin V-FITC/propidium iodide staining based flow cytometric analysis in presence of paclitaxel (reference value: 1.1%). The format is functional.
The test system of series [21] is MCF7/PTX. Nature of the series: Induction of apoptosis in human MCF7/PTX cells assessed as late apoptotic cells at 3 uM incubated for 12 hrs by Annexin V-FITC/propidium iodide staining based flow cytometric analysis in presence of paclitaxel (reference value: 0.9%). The format is functional.
Series [22] relates to MCF7/PTX. The series can be described thus: Induction of apoptosis in human MCF7/PTX cells assessed as necrotic cells at 3 uM incubated for 12 hrs by Annexin V-FITC/propidium iodide staining based flow cytometric analysis in presence of paclitaxel (reference value: 2.1%). The format is functional.

Chain of Tubulin (Sus scrofa) (P02550 whole entry, looked up): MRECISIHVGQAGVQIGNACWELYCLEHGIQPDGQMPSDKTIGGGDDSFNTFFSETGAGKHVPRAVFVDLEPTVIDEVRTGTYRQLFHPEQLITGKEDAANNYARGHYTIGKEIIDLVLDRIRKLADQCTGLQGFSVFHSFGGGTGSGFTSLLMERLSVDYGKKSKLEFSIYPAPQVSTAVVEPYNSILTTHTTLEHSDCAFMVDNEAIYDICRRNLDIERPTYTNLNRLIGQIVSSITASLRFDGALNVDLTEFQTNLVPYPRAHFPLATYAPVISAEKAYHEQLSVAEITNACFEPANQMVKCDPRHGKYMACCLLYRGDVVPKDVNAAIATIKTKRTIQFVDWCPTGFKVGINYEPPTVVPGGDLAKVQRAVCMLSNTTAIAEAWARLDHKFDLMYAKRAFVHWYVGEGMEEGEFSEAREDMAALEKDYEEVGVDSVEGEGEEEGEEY
Chain of Tubulin (Sus scrofa) (P02554 whole entry, looked up): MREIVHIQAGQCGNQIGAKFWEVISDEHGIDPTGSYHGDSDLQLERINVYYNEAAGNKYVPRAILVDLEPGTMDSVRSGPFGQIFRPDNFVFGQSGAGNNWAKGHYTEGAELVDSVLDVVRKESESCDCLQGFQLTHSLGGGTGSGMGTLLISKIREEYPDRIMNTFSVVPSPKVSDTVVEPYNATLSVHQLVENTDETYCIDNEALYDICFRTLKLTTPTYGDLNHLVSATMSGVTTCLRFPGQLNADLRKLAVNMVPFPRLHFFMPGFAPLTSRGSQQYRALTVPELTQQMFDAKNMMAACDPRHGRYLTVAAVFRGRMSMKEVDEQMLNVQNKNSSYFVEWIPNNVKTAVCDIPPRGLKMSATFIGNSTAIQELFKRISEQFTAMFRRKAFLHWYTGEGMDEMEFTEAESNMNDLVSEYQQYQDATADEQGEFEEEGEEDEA

In general, IC50 refers to the concentration at which inhibition is half-maximal. In the case of `CC(=O)O[C@H]1C(=O)[C@@]2(C)[C@H]([C@H](OC(=O)c3ccccc3)[C@]3(O)C[C@H](OC(=O)[C@H](OC(=O)CCCCCN4C(=O)CC(SC[C@H](NC(=O)[C@H](CCCCN)NC(=O)[C@H](CCCCN)NC(=O)[C@H](CC(C)C)NC(=O)[C@H](CCCCN)NC(=O)[C@H](CCCNC(=N)N)NC(=O)[C@H](Cc5ccccc5)NC(=O)[C@H](Cc5ccccc5)NC(=O)[C@H](CCCCN)NC(=O)[C@H](CCCCN)NC(=O)[C@H](Cc5ccccc5)NC(=O)[C@H](CCCNC(=N)N)NC(=O)[C@H](CCCCN)NC(=O)[C@@H](NC(=O)[C@H](CC(C)C)NC(=O)CC[C@H](NC(=O)c5ccc(NCc6cnc7nc(N)[nH]c(=O)c7n6)cc5)C(=O)O)C(C)C)C(=O)N[C@H](C(=O)N[C@@H](CC(C)C)C(=O)N[C@@H](CC(C)C)C(N)=O)C(C)C)C4=O)[C@@H](NC(=O)c4ccccc4)c4ccccc4)C(C)=C1C3(C)C)[C@]1(OC(C)=O)CO[C@@H]1C[C@@H]2O` (some centres not stated) ({Pteroyl-γGlu}-LVKRFKKFFRKLKKC(X1)VLL-NH2), the Activity entry was “Dose-dependent effect” in the series with MCF7/PTX [1]; 34.6% in the series with MCF7/PTX [2]; 8% with MCF7/PTX [5]; 56.3% in the series on MCF7/PTX [6]; 1.1% with MCF7/PTX [7]; “Toxic” in the series on Erythrocyte. Further, the Activity result in the series with MCF7/PTX [15] was “Dose-dependent effect”. In addition, the half-maximal inhibitory concentration (IC50) in the series on MCF7 [3] was found to be 1.79 µM; in the series on MCF7/PTX [4], 4.54 µM; in the series on K562 it was 5.38 µM; in the series on A2780 it was 1.95 µM; with SK-OV-3 it was 5.92 µM; in the series on HUVEC it was 48.6 µM. The Drug uptake entry in [8] is “Active”. Moreover, the result with MCF7/PTX [9], in the series with MCF7 [10], in the series with MCF7/PTX [11], in the series with MCF7/PTX [12], in the series on MCF7/PTX [13] and in the series with MCF7/PTX [14] was Active.
For orientation: solubility means the concentration that dissolves in the medium under given conditions. A high value points to a readily soluble substance. Usually inhibition in vivo stands for the drop in the measured response relative to a control, in per cent. Turning to `CC(=O)O[C@H]1C(=O)[C@@]2(C)[C@H]([C@H](OC(=O)c3ccccc3)[C@]3(O)C[C@H](OC(=O)[C@H](O)[C@@H](NC(=O)c4ccccc4)c4ccccc4)C(C)=C1C3(C)C)[C@]1(OC(C)=O)CO[C@@H]1C[C@@H]2O` [PACLITAXEL], the Activity is 1.5% with MCF7/PTX [2], 3.9% with MCF7/PTX [5], 93.2% in the series on MCF7/PTX [6] and 1.3% with MCF7/PTX [7]. The compound further displayed a solubility in [16] of 4 µg/mL (≈ 4.68 µM). The half-inhibitory concentration (IC50) stood at 54.8 µM with MCF7/PTX [4]; 5.8 µM in the series with K562; 2.85 µM in the series on A2780; 6.29 µM in the series on SK-OV-3; 9.39 µM in the series with HUVEC. Also, the outcome at Tubulin (Sus scrofa) was Active. The inhibition in vivo at 12 µmol/kg in series [17] turned out to be 49%.
As a reminder, the half-life is the time in which the quantity being followed falls by half. Higher therefore signals slow loss. For H-LVRRFRRFFRRLRRCVLL-NH2, the Activity came out at 9% in the series with MCF7/PTX [2]; 5.7% in the series with MCF7/PTX [5]; 83.5% in the series on MCF7/PTX [6]; 1.7% in the series on MCF7/PTX [7]; 76.7% with MCF7/PTX [19]; 1.7% in the series on MCF7/PTX [20]. Also, the Activity in the series on MCF7/PTX [21] is 15.9%; with MCF7/PTX [22], 5.8%. Besides, the concentration for half-maximal inhibition (IC50) with MCF7 [3] amounted to 8.61 µM; in the series on MCF7/PTX [4] it was 17.1 µM; in the series on K562, 9.49 µM; in the series on A2780 it was 11.5 µM; in the series with SK-OV-3, 13.6 µM; in the series on HUVEC, 44.5 µM. In series [18], this compound showed a half-life at 500 ug/ml of 48 min.

Values taken from ChEMBL document CHEMBL4346678, “Synthesis and anti-cancer evaluation of folic acid-peptide- paclitaxel conjugates for addressing drug resistance” (Eur J Med Chem, 2019).
